Source: PubChem BioAssay (NCI)
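All cell lines were grown in 96-well plates and treated with compound for 48 hours. At the GI50, growth is halved. At the TGI there is no net growth.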

How the values were obtained:
Test in all cases: NCI-60 cell line screen, 48 h
KM12 colon = test system: KM12 colon
LOX IMVI melanoma = test system: LOX IMVI melanoma
NCI-H23 lung = test system: NCI-H23 lung
NCI-H460 lung = test system: NCI-H460 lung
OVCAR-3 ovarian = test system: OVCAR-3 ovarian
OVCAR-4 ovarian = test system: OVCAR-4 ovarian
OVCAR-5 ovarian = test system: OVCAR-5 ovarian
SK-MEL-28 melanoma = test system: SK-MEL-28 melanoma
SN12C renal = test system: SN12C renal
MDA-MB-435 = test system: MDA-MB-435

## Nc1nc2sc3ccccc3c(=O)n2n1
KM12 colon
  TGI: > 100 µM
LOX IMVI melanoma
  TGI: > 100 µM
NCI-H23 lung
  TGI: > 100 µM
NCI-H460 lung
  TGI: > 100 µM
OVCAR-3 ovarian
  TGI: > 100 µM
OVCAR-4 ovarian
  TGI: > 100 µM
OVCAR-5 ovarian
  TGI: > 100 µM
SK-MEL-28 melanoma
  TGI: > 100 µM
SN12C renal
  TGI: > 100 µM

## Cc1oc2c(C)c3oc(=O)cc(C)c3cc2c1CNC(=O)[C@@H]1OCCOCCOCCOCCOCCOC1C(=O)O (some centres not stated)
KM12 colon
  TGI: > 100 µM
LOX IMVI melanoma
  TGI: > 100 µM
NCI-H23 lung
  TGI: > 100 µM
NCI-H460 lung
  TGI: > 100 µM
OVCAR-3 ovarian
  TGI: > 100 µM
OVCAR-4 ovarian
  TGI: > 100 µM
OVCAR-5 ovarian
  TGI: > 100 µM
SN12C renal
  TGI: > 100 µM

## CN(C)CCN(C)CC1COC(C)(C)O1 (configuration not stated)
KM12 colon
  TGI: > 100 µM
LOX IMVI melanoma
  TGI: > 100 µM
NCI-H23 lung
  TGI: > 100 µM
NCI-H460 lung
  TGI: > 100 µM
OVCAR-3 ovarian
  TGI: > 100 µM
OVCAR-4 ovarian
  TGI: > 100 µM
OVCAR-5 ovarian
  TGI: > 100 µM
SK-MEL-28 melanoma
  TGI: > 100 µM
SN12C renal
  TGI: > 100 µM

## CSc1cccc(-n2c3nc(=O)n(C)c(=O)c-3nc3ccccc32)c1
KM12 colon
  TGI: 43.2 µM
NCI-H23 lung
  TGI: 70.3 µM
NCI-H460 lung
  TGI: 10.2 µM
OVCAR-3 ovarian
  TGI: 6.17 µM
OVCAR-4 ovarian
  TGI: 21.6 µM
OVCAR-5 ovarian
  TGI: 32 µM
SK-MEL-28 melanoma
  TGI: 37.3 µM
SN12C renal
  TGI: 17.9 µM

## COc1ccc(NC(=O)CC(=O)N2N=C(N(CCC#N)c3ccccc3Cl)CC2c2ccccc2)cc1 (configuration not stated)
KM12 colon
  TGI: > 100 µM
LOX IMVI melanoma
  TGI: > 100 µM
NCI-H23 lung
  TGI: > 100 µM
NCI-H460 lung
  TGI: > 100 µM
OVCAR-3 ovarian
  TGI: > 100 µM
OVCAR-4 ovarian
  TGI: > 100 µM
OVCAR-5 ovarian
  TGI: > 100 µM
SK-MEL-28 melanoma
  TGI: > 100 µM
SN12C renal
  TGI: > 100 µM

## COc1ccc2c(c1)C(=O)N1CCOC1C2C(=O)O (configuration not stated)
KM12 colon
  TGI: > 100 µM
LOX IMVI melanoma
  TGI: > 100 µM
NCI-H23 lung
  TGI: > 100 µM
NCI-H460 lung
  TGI: > 100 µM
OVCAR-3 ovarian
  TGI: > 100 µM
OVCAR-4 ovarian
  TGI: > 100 µM
OVCAR-5 ovarian
  TGI: > 100 µM
SK-MEL-28 melanoma
  TGI: > 100 µM
SN12C renal
  TGI: > 100 µM

## NC(=O)C#CC#CC#CCO
KM12 colon
  TGI: 12.2 µM
LOX IMVI melanoma
  TGI: 3.83 µM
NCI-H23 lung
  TGI: 3.93 µM
NCI-H460 lung
  TGI: 19.3 µM
OVCAR-3 ovarian
  TGI: 3.49 µM
OVCAR-4 ovarian
  TGI: 3.53 µM
OVCAR-5 ovarian
  TGI: 33.1 µM
SK-MEL-28 melanoma
  TGI: 3.58 µM
SN12C renal
  TGI: 3.76 µM

## COC(=O)C1CCC(Nc2ccc(C)cc2C)=N1 (configuration not stated)
KM12 colon
  TGI: > 100 µM
LOX IMVI melanoma
  TGI: > 100 µM
NCI-H23 lung
  TGI: > 100 µM
NCI-H460 lung
  TGI: > 100 µM
OVCAR-3 ovarian
  TGI: > 100 µM
OVCAR-4 ovarian
  TGI: > 100 µM
OVCAR-5 ovarian
  TGI: > 100 µM
SK-MEL-28 melanoma
  TGI: > 100 µM
SN12C renal
  TGI: > 100 µM

## C=C(C)C1Cc2c(cc(OC)c3c(=O)c4cccc(O)c4oc23)O1 (configuration not stated)
KM12 colon
  TGI: > 100 µM
LOX IMVI melanoma
  TGI: 29.6 µM
NCI-H23 lung
  TGI: 59.5 µM
NCI-H460 lung
  TGI: 62.6 µM
OVCAR-4 ovarian
  TGI: 42.4 µM
OVCAR-5 ovarian
  TGI: > 100 µM
SK-MEL-28 melanoma
  TGI: 72 µM
SN12C renal
  TGI: 76.7 µM

## N#CC(C(=O)/C(=N/NC(=O)c1ccccc1O)C(C#N)c1ccccc1)c1ccccc1 (configuration not stated)
KM12 colon
  TGI: > 100 µM
LOX IMVI melanoma
  TGI: > 100 µM
NCI-H23 lung
  TGI: > 100 µM
NCI-H460 lung
  TGI: > 100 µM
OVCAR-3 ovarian
  TGI: > 100 µM
OVCAR-4 ovarian
  TGI: > 100 µM
SK-MEL-28 melanoma
  TGI: > 100 µM
SN12C renal
  TGI: > 100 µM

## CCCCCCCC(=O)NCC(O)CNC(=O)CCCCCCC
KM12 colon
  TGI: > 100 µM
LOX IMVI melanoma
  TGI: > 100 µM
NCI-H23 lung
  TGI: > 100 µM
NCI-H460 lung
  TGI: > 100 µM
OVCAR-3 ovarian
  TGI: > 100 µM
OVCAR-4 ovarian
  TGI: > 100 µM
OVCAR-5 ovarian
  TGI: > 100 µM
SN12C renal
  TGI: > 100 µM

## N#CC(/C(=N/NC(=O)C(=O)NN)C(=O)Nc1nc([N+](=O)[O-])cs1)c1ccc(Cl)cc1 (configuration not stated)
KM12 colon
  TGI: > 100 µM
LOX IMVI melanoma
  TGI: > 100 µM
NCI-H23 lung
  TGI: > 100 µM
NCI-H460 lung
  TGI: > 100 µM
OVCAR-3 ovarian
  TGI: > 100 µM
OVCAR-4 ovarian
  TGI: > 100 µM
OVCAR-5 ovarian
  TGI: > 100 µM
SK-MEL-28 melanoma
  TGI: > 100 µM
SN12C renal
  TGI: > 100 µM

## CC1OC(n2ccc(=O)[nH]c2=O)C=C(OC(=O)c2ccccc2)C1=O (configuration not stated)
LOX IMVI melanoma
  TGI: > 100 µM
NCI-H23 lung
  TGI: > 100 µM
NCI-H460 lung
  TGI: > 100 µM
OVCAR-3 ovarian
  TGI: 53.4 µM
OVCAR-4 ovarian
  TGI: 36.8 µM
SK-MEL-28 melanoma
  TGI: > 100 µM
SN12C renal
  TGI: > 100 µM

## [Cl][Sn]([Cl])([c]1ccccc1)[c]1ccccc1
KM12 colon
  GI50: 19.6 µM
  TGI: 39.1 µM
LOX IMVI melanoma
  GI50: 4.51 µM
  TGI: 17.1 µM
NCI-H23 lung
  GI50: 10.4 µM
  TGI: 24 µM
OVCAR-3 ovarian
  GI50: 13.4 µM
  TGI: 26.2 µM
OVCAR-4 ovarian
  GI50: 16.8 µM
  TGI: 31 µM
OVCAR-5 ovarian
  GI50: 15.8 µM
  TGI: 29.3 µM
SK-MEL-28 melanoma
  GI50: 2.43 µM
  TGI: 6.53 µM
SN12C renal
  GI50: 14.9 µM
  TGI: 28.2 µM

## Nc1ncnc2c1ncn2Cc1ccc(C23CC4CC(CC(C4)C2)C3)c(OCc2cc(F)c(F)cc2F)c1
KM12 colon
  GI50: 3.92 µM
  TGI: > 100 µM
LOX IMVI melanoma
  GI50: 5.36 µM
  TGI: > 100 µM
MDA-MB-435
  GI50: 5.22 µM
  TGI: > 100 µM
NCI-H460 lung
  GI50: 4.33 µM
  TGI: > 100 µM
OVCAR-3 ovarian
  GI50: 3.27 µM
  TGI: > 100 µM
OVCAR-4 ovarian
  GI50: 90.8 µM
  TGI: > 100 µM
OVCAR-5 ovarian
  GI50: 68.6 µM
  TGI: > 100 µM
SK-MEL-28 melanoma
  GI50: > 100 µM
  TGI: > 100 µM
SN12C renal
  GI50: 11.7 µM
  TGI: 67.5 µM

## Cc1ccccc1C1=[N+]([O-])c2ccccc2C1=O
KM12 colon
  TGI: 25.9 µM
LOX IMVI melanoma
  TGI: 35 µM
NCI-H23 lung
  TGI: 35.4 µM
NCI-H460 lung
  TGI: 37.3 µM
OVCAR-3 ovarian
  TGI: 25.2 µM
OVCAR-5 ovarian
  TGI: 43.1 µM
SK-MEL-28 melanoma
  TGI: 35.8 µM
SN12C renal
  TGI: 32.1 µM
